Source: ChEMBL document CHEMBL1137045, “Quinazolinone-based fungal efflux pump inhibitors. Part 1: Discovery of an (N-methylpiperazine)-containing derivative with activity in clinically relevant Candida spp” (Bioorg Med Chem Lett, 2004)
≈ marks a conversion by molar mass, not a printed value.

Experiments:
[1] = system: Candida albicans; assay: In vitro concentration to inhibit Candida albicans CDR1 transporter gene over-expressed in Saccharomyces cerevisiae strain YEM172; format: functional, organism-based
[2] = system: Candida albicans; assay: In vitro concentration to inhibit Candida albicans CDR2 transporter gene over-expressed in Saccharomyces cerevisiae strain YEM171; format: functional, organism-based
[3] = system: Nakaseomyces glabratus; assay: In vitro concentration to inhibit Candida glabrata CgCDR1 transporter gene over-expressed in Saccharomyces cerevisiae strain Y170; format: functional, organism-based
[4] = system: Nakaseomyces glabratus; assay: In vitro minimum potentiation concentration required to achieve an 8-fold reduction in fluconazole MIC against Candida glabrata strain YEM19 (overexpressing both […]); format: functional
[5] = system: Candida albicans; assay: In vitro minimum potentiation concentration required to achieve an 8-fold reduction in fluconazole MIC against Candida albicans strain YEM15 (overexpressing both CDR1 and CDR2); format: functional
[6] = system: Nakaseomyces glabratus; assay: In vitro concentration to inhibit Candida glabrata CgCDR2 transporter gene over-expressed in Saccharomyces cerevisiae strain Y218; format: functional, organism-based
[7] = system: Saccharomyces cerevisiae; assay: In vitro concentration required to inhibit 80% growth of Saccharomyces cerevisiae strain YEM139 (PDR5 deleted) after 48 h; format: functional
[8] = system: Saccharomyces cerevisiae; assay: In vitro concentration required to inhibit 80% growth of Saccharomyces cerevisiae strain Y170 (CgCDR1 over-expressed) after 48 h; format: functional
[9] = system: Saccharomyces cerevisiae; assay: In vitro concentration required to inhibit 80% growth of Saccharomyces cerevisiae strain Y218 (CgCDR2 over-expressed) after 48 h; format: functional
[10] = system: Saccharomyces cerevisiae; assay: In vitro concentration required to inhibit 80% growth of Saccharomyces cerevisiae strain YEM171 (CDR2 over-expressed) after 48 h; format: functional
[11] = system: Saccharomyces cerevisiae; assay: In vitro concentration required to inhibit 80% growth of Saccharomyces cerevisiae strain YEM172 (CDR1 over-expressed) after 48 h; format: functional

SMILES | IC50 [1] | IC50 [2] | IC50 [3] | MPC8 [4] | MPC8 [5] | IC50 [6] | MIC [7] | MIC [8] | MIC [9] | MIC [10] | MIC [11]
COc1ccc(N(C(=O)Nc2cccc(Cl)c2)[C@@H](C)c2nc3ccccc3c(=O)n2N2CCN(C)CC2)c(OC)c1 | 2 µg/mL (≈ 3.47 µM) | > 32 µg/mL | 4 µg/mL (≈ 6.93 µM) | 1 µg/mL | 1 µg/mL | > 32 µg/mL | – | – | – | – | –
COc1ccc(N(C(=O)Nc2cccc(Cl)c2)[C@H](C)c2nc3ccccc3c(=O)n2N2CCN(C)CC2)c(OC)c1 | > 32 µg/mL | > 32 µg/mL | > 32 µg/mL | >32 µg/mL | >32 µg/mL | > 32 µg/mL | – | – | – | – | –
COc1ccc(N(C(=O)Nc2cccc(Cl)c2)C(C)c2nc3ccccc3c(=O)n2Cc2ccccc2)c(OC)c1 (configuration not stated) | 0.12 µg/mL (≈ 0.211 µM) | > 32 µg/mL | > 32 µg/mL | >32 µg/mL | 0.5 µg/mL | > 32 µg/mL | – | – | – | – | –
CCOC(=O)CCn1c(C(C)N(C(=O)Nc2cccc(Cl)c2)c2ccc(OC)cc2OC)nc2ccccc2c1=O (configuration not stated) | 0.5 µg/mL (≈ 0.863 µM) | > 32 µg/mL | > 32 µg/mL | >32 µg/mL | 1 µg/mL | > 32 µg/mL | – | – | – | – | –
COc1ccc(N(C(=O)Nc2cccc(Cl)c2)C(C)c2nc3ccccc3c(=O)n2N2CCN(C)CC2)c(OC)c1 (configuration not stated) | 4 µg/mL (≈ 6.93 µM) | > 16 µg/mL | 8 µg/mL (≈ 13.9 µM) | 4 µg/mL | 1 µg/mL | > 16 µg/mL | – | – | – | – | –
COc1ccc(N(C(=O)Nc2cccc(Cl)c2)C(C)(C)c2nc3ccccc3c(=O)n2N2CCN(C)CC2)c(OC)c1 | > 32 µg/mL | > 32 µg/mL | > 32 µg/mL | >32 µg/mL | >32 µg/mL | > 32 µg/mL | – | – | – | – | –
OC(Cn1cncn1)(Cn1cncn1)c1ccc(F)cc1F [FLUCONAZOLE] | – | – | – | – | – | – | 0.5 µg/mL (≈ 1.63 µM) | 128 µg/mL (≈ 418 µM) | 2 µg/mL (≈ 6.53 µM) | 8 µg/mL (≈ 26.1 µM) | 128 µg/mL (≈ 418 µM)
COc1ccc(N(Cc2nc3ccccc3c(=O)n2N2CCN(C)CC2)C(=O)Nc2cccc(Cl)c2)c(OC)c1 | 32 µg/mL (≈ 56.8 µM) | > 32 µg/mL | > 32 µg/mL | 16 µg/mL | 16 µg/mL | 32 µg/mL (≈ 56.8 µM) | – | – | – | – | –
